This is an account of results in PubChem BioAssay (NCI).

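Step 1: Grow cells in 96-well plates. Step 2: Expose to compound for 48 hours at 5 concentrations. Step 3: Interpolate endpoints linearly; if unreached, use highest concentration. Abbreviation: GI50, concentration required for 50% inhibition of growth. TGI: total growth inhibition.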

Test systems include SK-MEL-5 melanoma; NCI-H522 lung; SK-MEL-28 melanoma; SF-268 CNS; K-562 leukemia; COLO 205 colon; CAKI-1 renal; SK-MEL-2 melanoma; SF-295 CNS; SF-539 CNS.
What all share (test): NCI anticancer screen, dose series, 48 h

As for `Cc1ccc(NC(=O)/C=C/c2ccccc2)c(C(N)=O)c1`, the GI50 in the experiment on SK-MEL-5 melanoma is 1.94 µM; in the experiment on NCI-H522 lung, 1.89 µM; in the experiment on SK-MEL-28 melanoma, 3.65 µM; in the experiment with SF-268 CNS, 7.19 µM; in the experiment with K-562 leukemia, 1.06 µM; in the experiment on COLO 205 colon it was 1.68 µM. Moreover, the GI50 with CAKI-1 renal was 6.78 µM; with SK-MEL-2 melanoma, 4.75 µM; with SF-295 CNS, 2.79 µM; with SF-539 CNS, 2.07 µM. In addition, the TGI with SK-MEL-5 melanoma was over 41.5 µM; in the experiment on NCI-H522 lung, 9.06 µM; in the experiment on SK-MEL-28 melanoma, over 100 µM; in the experiment on SF-268 CNS, over 100 µM; in the experiment on K-562 leukemia, over 100 µM; in the experiment with COLO 205 colon it was 5.93 µM. The TGI with CAKI-1 renal was over 59.4 µM; in the experiment with SK-MEL-2 melanoma, 31.6 µM; in the experiment with SF-295 CNS, over 56.7 µM; with SF-539 CNS, 6.75 µM.
Regarding `COc1cc2c(cc1OCCCCOc1cc3c(cc1OC)C(=O)N1CCC[C@H]1CN3)N=C[C@@H]1CCCN1C2=O`, the GI50 in the experiment on SK-MEL-5 melanoma was 0.463 µM; with NCI-H522 lung, 0.072 µM; in the experiment with SK-MEL-28 melanoma, 2.86 µM; with SF-268 CNS it was 0.344 µM; in the experiment on K-562 leukemia, 0.174 µM; in the experiment on COLO 205 colon, 1.3 µM. In addition, the GI50 with CAKI-1 renal was 0.344 µM; with SK-MEL-2 melanoma, 0.826 µM; in the experiment with SF-539 CNS, 0.419 µM. The TGI in the experiment with SK-MEL-5 melanoma is 1.62 µM; in the experiment on NCI-H522 lung, 0.386 µM; in the experiment on SK-MEL-28 melanoma, 11.8 µM; in the experiment with SF-268 CNS, 4.95 µM; with K-562 leukemia, over 37.9 µM; in the experiment on COLO 205 colon, 5.33 µM. In addition, the TGI with SK-MEL-2 melanoma was over 100 µM; in the experiment with SF-295 CNS it was 1.2 µM; in the experiment on SF-539 CNS, 2.89 µM.
As for `COc1ccc(C(OCC2OC(n3ccc(NC(=O)c4ccccc4)nc3=O)C(O)C2O)(c2ccccc2)c2ccccc2)cc1` (stereo unspecified), the TGI with SK-MEL-5 melanoma turned out to be 3.32 µM; with NCI-H522 lung, 5.61 µM; in the experiment with SK-MEL-28 melanoma it was 7.95 µM; in the experiment with SF-268 CNS it was 19.8 µM; in the experiment on K-562 leukemia it was 5.58 µM; in the experiment with COLO 205 colon it was 3.7 µM. Also, the TGI with CAKI-1 renal amounted to 5.79 µM; in the experiment on SK-MEL-2 melanoma, 6.68 µM; in the experiment with SF-295 CNS it was 3.49 µM; in the experiment on SF-539 CNS, 3.94 µM.
Take `O=C(N/N=C/c1ccc2c(c1)CCC2)c1ccccc1O`: the TGI was over 100 µM with SK-MEL-5 melanoma; 61.1 µM in the experiment with NCI-H522 lung; 68.2 µM in the experiment with SK-MEL-28 melanoma; 74.7 µM in the experiment on SF-268 CNS; over 100 µM with K-562 leukemia; over 100 µM in the experiment on COLO 205 colon. The TGI in the experiment with CAKI-1 renal stood at 74.5 µM; with SK-MEL-2 melanoma, 60 µM; in the experiment on SF-295 CNS, 36.6 µM; in the experiment on SF-539 CNS, 65.8 µM.
In the case of `COC1CC(OS(=O)(=O)c2ccc(C)cc2)C(OC(=O)c2ccccc2)C(C)O1` (stereo unspecified), the GI50 with SK-MEL-5 melanoma, in the experiment with NCI-H522 lung, with SK-MEL-28 melanoma, in the experiment with K-562 leukemia, in the experiment with COLO 205 colon and in the experiment on CAKI-1 renal was over 100 µM throughout. Besides, the GI50 in the experiment with SK-MEL-2 melanoma and in the experiment with SF-539 CNS was over 100 µM throughout. Further, the TGI in the experiment with SK-MEL-5 melanoma, with NCI-H522 lung, in the experiment on SK-MEL-28 melanoma, with SF-268 CNS, in the experiment with K-562 leukemia and in the experiment with COLO 205 colon was over 100 µM in each case. Besides, the TGI in the experiment with CAKI-1 renal, with SK-MEL-2 melanoma, with SF-295 CNS and in the experiment on SF-539 CNS was over 100 µM in each case.
Consider `CCN=C1C=CC(=C(c2ccc(N)cc2)c2ccc(N(CC)CC)c(C)c2)C=C1`, for which the GI50 in the experiment on SK-MEL-5 melanoma is 0.208 µM; in the experiment with NCI-H522 lung, 0.31 µM; with SK-MEL-28 melanoma it was 0.394 µM; with SF-268 CNS it was 0.407 µM; in the experiment on K-562 leukemia it was 0.259 µM; with COLO 205 colon, 0.185 µM. The GI50 in the experiment on CAKI-1 renal is 1.92 µM; in the experiment with SK-MEL-2 melanoma it was 0.303 µM; in the experiment on SF-295 CNS it was 0.223 µM; in the experiment on SF-539 CNS, 0.34 µM. The TGI was 0.44 µM with SK-MEL-5 melanoma; 1.62 µM in the experiment with NCI-H522 lung; 1.96 µM with SK-MEL-28 melanoma; 2.09 µM in the experiment on SF-268 CNS; 1.72 µM with K-562 leukemia; 0.4 µM in the experiment with COLO 205 colon. Further, the TGI with CAKI-1 renal was determined as 8.15 µM; with SK-MEL-2 melanoma, 0.943 µM; in the experiment with SF-295 CNS it was 0.745 µM; in the experiment with SF-539 CNS it was 1.36 µM.
As for `COc1ccc(-c2cc(-c3ccccc3)nc(SCCCC(=O)NO)n2)cc1`, the GI50 in the experiment on SK-MEL-5 melanoma is 1.26 µM; with NCI-H522 lung it was 0.808 µM; in the experiment on SK-MEL-28 melanoma, 1.25 µM; with SF-268 CNS, 1.66 µM; with K-562 leukemia, 0.762 µM; in the experiment with COLO 205 colon, 2.08 µM. The GI50 is 0.335 µM in the experiment with CAKI-1 renal, 2.3 µM with SK-MEL-2 melanoma, 0.826 µM in the experiment with SF-295 CNS and 1.47 µM in the experiment with SF-539 CNS. For the same compound, the TGI in the experiment on SK-MEL-5 melanoma was found to be 2.75 µM; in the experiment with NCI-H522 lung it was 4.32 µM; in the experiment on SK-MEL-28 melanoma, 3.12 µM; with SF-268 CNS, 5.16 µM; with K-562 leukemia, 18 µM; in the experiment on COLO 205 colon, 6.94 µM. Further, the TGI worked out at 1.45 µM in the experiment on CAKI-1 renal, 9.26 µM in the experiment on SK-MEL-2 melanoma, 2.54 µM in the experiment on SF-295 CNS and 4.32 µM with SF-539 CNS.
As for `N=C(N)c1ccc(N2CCCN(c3ccc(C(=N)N)cc3)CC2)cc1`, the GI50 with SK-MEL-5 melanoma was 27.9 µM; in the experiment on NCI-H522 lung, 81.9 µM; with SK-MEL-28 melanoma it was over 100 µM; with SF-268 CNS, 57.7 µM; with K-562 leukemia it was 89.6 µM; in the experiment with COLO 205 colon, 31.8 µM. Moreover, the GI50 in the experiment with CAKI-1 renal was 99.7 µM; in the experiment with SK-MEL-2 melanoma it was over 100 µM; in the experiment with SF-295 CNS it was 32.6 µM; in the experiment with SF-539 CNS, 41.5 µM. Besides, the TGI in the experiment on SK-MEL-5 melanoma, with NCI-H522 lung, in the experiment on SK-MEL-28 melanoma, in the experiment with SF-268 CNS, in the experiment with K-562 leukemia and in the experiment on COLO 205 colon was over 100 µM in each case. In addition, the TGI with CAKI-1 renal, in the experiment on SK-MEL-2 melanoma, in the experiment on SF-295 CNS and with SF-539 CNS was over 100 µM in each case.
